Structures can show the parent of a compound that is named as a salt.

In turn, `FC(F)(F)c1ccccc1` [Benzotrifluoride] returned a flash point of 12.00 °C. The same measure for `CC(=O)OCc1ccccc1` [Benzyl acetate]: 102.00 °C; for `OCc1ccccc1` [Benzyl alcohol]: 101.00 °C; for `O=C(OCc1ccccc1)c1ccccc1` [Benzyl benzoate]: 148.00 °C.

Compound `ClCc1ccccc1` [Benzyl chloride] displayed a flash point of 67.00 °C. In turn, `SCc1ccccc1` [Benzyl mercaptan] returned a flash point of 70.00 °C.

Regarding `C1CCC(C2CCCCC2)CC1` [Bicyclohexyl], the flash point was found to be 74.00 °C. The same measure for `C=COCCCC` [Butyl vinyl ether]: -9.00 °C. With `CC12CCC(CC1=O)C2(C)C` (centres undefined) [Camphor] the figure was 66.00 °C. With `Clc1ccccc1` [Chlorobenzene] the figure was 29.00 °C; with `FC(F)=C(F)Cl` [Chlorotrifluoroethylene], -27.00 °C. Take `O=CC=Cc1ccccc1` [Cinnamaldehyde]: the flash point amounted to 49.00 °C. As to `NC1CCCCC1` [Cyclohexylamine], the flash point was found to be 32.00 °C.

For `c1ccc(C2CCCCC2)cc1` [Cyclohexylbenzene], the flash point was 99.00 °C. Take `C1CCCC1` [Cyclopentane]: the flash point was -7.00 °C. The same measure for `CCCCCCCCOC(=O)c1ccccc1C(=O)OCCCCCCCC` [Di-n-Octyl phthalate]: 219.00 °C; for `CCCCCCC(C)OC(=O)c1ccccc1C(=O)OC(C)CCCCCC` (centres undefined) [Di-sec-Octyl phthalate]: 218.00 °C; for `OCCOCCO` [Diethylene glycol]: 124.00 °C.

`CC(C)c1ccccc1C(C)C` [Diisopropyl benzene] had a flash point of 76.00 °C. For `CS(C)=O` [Dimethyl sulphoxide], the flash point came to 95.00 °C. The same measure for `CN(C)C=O` [Dimethylformamide]: 58.00 °C. The same measure for `c1ccc(Nc2ccccc2)cc1` [Diphenylamine]: 153.00 °C; for `c1ccc(Cc2ccccc2)cc1` [Diphenylmethane]: 130.00 °C. With `CCO` [Ethanol] the figure was 12.00 °C; with `CCOC(C)=O` [Ethyl acetate], -4.40 °C.

As for `C=CC(=O)OCC` [Ethyl acrylate], the flash point is 16.00 °C. With `CCCC(=O)OCC` [Ethyl butyrate], the flash point turned out to be 26.00 °C. Compound `O=CO` [Formic acid] yielded a flash point of 69.00 °C.

As for `OCc1ccco1` [Furfuryl alcohol], the flash point was 75.00 °C. In the case of `Clc1c(Cl)c(Cl)c(Cl)c(Cl)c1Cl` [Hexachlorobenzene], the flash point was determined as 242.00 °C. `CCCCCC` [Hexane] had a flash point of -22.00 °C. For `COc1ccc(O)cc1` [Hydroquinone monomethyl ether], the flash point came to 131.00 °C. `CC(O)C#N` (centres undefined) [Lactonitrile] had a flash point of 77.00 °C. With `O=C1C=CC(=O)O1` [Maleic anhydride], the flash point worked out at 102.00 °C.

Regarding `CC(=O)C=C(C)C` [Mesityl oxide], the flash point is 31.00 °C.

In the case of `COC(C)=O` [Methyl acetate], the flash point was -9.00 °C. With `CO` [Methyl alcohol] the figure was 12.00 °C; with `CCCCC(C)=O` [Methyl butyl ketone], 35.00 °C. The same measure for `COC` [Methyl ether]: -41.00 °C; for `COC=O` [Methyl formate]: -19.00 °C; for `COC(=O)c1ccccc1O` [Methyl salicylate]: 101.00 °C. `C=COC` [Methyl vinyl ether] showed a flash point of -51.00 °C. The same measure for `CN` [Monomethylamine]: -10.00 °C; for `CCN(CC)c1ccccc1` [N,N-Diethylaniline ]: 85.00 °C. Turning to `CCN1CCOCC1` [N-Ethylmorpholine], the flash point turned out to be 32.00 °C. The same measure for `O=[N+]([O-])c1ccccc1` [Nitrobenzene]: 88.00 °C; for `CC[N+](=O)[O-]` [Nitroethane]: 38.00 °C. The same measure for `CCCCCCCCCc1ccccc1O` [Nonyl phenol]: 141.00 °C. Compound `CCCCCCCC/C=C\CCCCCCCC(=O)O` [Oleic acid] showed a flash point of 189.00 °C.

With `CC(=O)Oc1ccccc1` [Phenyl acetate], the flash point was 80.00 °C. Take `c1ccc(Oc2ccccc2)cc1` [Phenyl ether]: the flash point is 96.00 °C. In turn, `O=C1OC(=O)c2ccccc21` [Phthalic anhydride] gave a flash point of 151.00 °C. `C1CCNCC1` [Piperidine] gave a flash point of 16.00 °C.

Consider `C#CCO` [Propargyl alcohol], for which the flash point was 36.00 °C. With `CC1COC(=O)O1` (centres undefined) [Propylene carbonate] the figure was 135.00 °C; with `C=CC` [Propylene], -108.00 °C; with `O=Cc1ccccc1O` [Salicylaldehyde], 78.00 °C.

Turning to `C=Cc1ccccc1` [Styrene], the flash point came out at 31.00 °C. The same measure for `N#CCCC#N` [Succinonitrile]: 132.00 °C; for `CCCCN(CCCC)CCCC` [Tri-n-butyl amine]: 86.00 °C. `OCCOCCOCCO` [Triethylene glycol] displayed a flash point of 177.00 °C. The same measure for `NCCNCCNCCN` [Triethylene-tetramine]: 135.00 °C; for `CCCN(CCC)CCC` [Tripropylamine]: 41.00 °C. In turn, `C=COC(C)=O` [Vinyl acetate] showed a flash point of -8.00 °C. In turn, `C=C(Cl)Cl` [Vinylidene chloride] came in with a flash point of -15.00 °C.

Take `O=[N+]([O-])c1cccc2ccccc12` [alpha-Nitronaphthalene]: the flash point came out at 164.00 °C. With `CC(=O)OCCC(C)C` [iso-Amyl acetate] the figure was 23.00 °C; with `CC(C)CCOC=O` [iso-Amyl formate], 26.00 °C; with `CC(C)Cc1ccccc1` [iso-Butyl benzene], 52.00 °C. The same measure for `CCC(C)C` [iso-Pentane]: -51.00 °C; for `C=C(C)OC(C)=O` [iso-Propenyl acetate]: 16.00 °C.

`CC(=O)OC(C)C` [iso-Propyl acetate] returned a flash point of 4.00 °C. The compound `CC(C)OC(=O)c1ccccc1` [iso-Propyl benzoate] came in with a flash point of 99.00 °C. In turn, `Cc1cccc(O)c1` [m-Cresol] gave a flash point of 94.00 °C. With `CCCCOC(C)=O` [n-Butyl acetate] the figure was 27.00 °C. `CCCCc1ccccc1` [n-Butyl benzene] gave a flash point of 71.00 °C.

On to `CCCCCl` [n-Butyl chloride], for which the flash point came out at 7.00 °C. Take `CCCC(=O)O` [n-Butyric acid]: the flash point amounted to 66.00 °C. The same measure for `CCCC(=O)OC(=O)CCC` [n-Butyric anhydride]: 88.00 °C.

The values are drawn from a flash point compilation (Sun et al. 2020).
